# PubChem BioAssay (NCI)
# Where “and” joins values, the source holds several entries; their conditions need not be identical. Equal entries are not always repeated.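 Method: 48-hour compound exposure of cells in 96-well plates, five concentrations, linear interpolation of endpoints. Here, GI50 denotes the concentration required for 50% inhibition of growth. TGI marks complete inhibition of growth.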
# What was measured:
# Test in all cases: NCI anticancer screen, dose series, 48 h
# K-562 leukemia = test system: K-562 leukemia
# SF-539 CNS = test system: SF-539 CNS
# NCI/ADR-RES ovarian = test system: NCI/ADR-RES ovarian
# SNB-75 CNS = test system: SNB-75 CNS
# NCI-H226 lung = test system: NCI-H226 lung
# UO-31 renal = test system: UO-31 renal
# A549 NSCLC = test system: A549 NSCLC
# DLD-1 colon = test system: DLD-1 colon
# SR leukemia = test system: SR leukemia
# BT-549 breast = test system: BT-549 breast
# U251 CNS = test system: U251 CNS
# NCI-H460 lung = test system: NCI-H460 lung
# OVCAR-3 ovarian = test system: OVCAR-3 ovarian
# SN12C renal = test system: SN12C renal
# M19-MEL melanoma = test system: M19-MEL melanoma
# HT29 colon = test system: HT29 colon
# NCI-H23 lung = test system: NCI-H23 lung
# SN12K1 renal = test system: SN12K1 renal
# OVCAR-5 ovarian = test system: OVCAR-5 ovarian
smiles,measurement,setting,value
Cc1c2cc[n+](C)cc2c(C)c2c1[nH]c1ccccc12,TGI,K-562 leukemia,43.1 µM and 40.2 µM
same,TGI,SF-539 CNS,2.85 µM and 2.93 µM
same,GI50,NCI/ADR-RES ovarian,48 µM and 15 µM
same,TGI,NCI/ADR-RES ovarian,> 100 µM
same,TGI,SNB-75 CNS,0.755 µM and 0.779 µM
same,TGI,NCI-H226 lung,1.7 µM and 1.61 µM
same,TGI,UO-31 renal,> 93.4 µM and 68.7 µM
same,TGI,A549 NSCLC,5.55 µM and 8.83 µM
same,TGI,DLD-1 colon,> 100 µM and 76.9 µM
same,TGI,SR leukemia,> 100 µM
same,TGI,BT-549 breast,8.07 µM
same,TGI,U251 CNS,1.94 µM and 2.74 µM
same,TGI,NCI-H460 lung,12.3 µM and 11.8 µM
same,TGI,OVCAR-3 ovarian,19.7 µM and 21.3 µM
same,TGI,SN12C renal,1.29 µM and 1.2 µM
same,TGI,M19-MEL melanoma,3.34 µM and 2.32 µM
same,TGI,HT29 colon,62.7 µM and 71.6 µM
same,TGI,NCI-H23 lung,4.8 µM and 6.39 µM
same,TGI,SN12K1 renal,4.3 µM and 4.19 µM
same,TGI,OVCAR-5 ovarian,56.6 µM and 61.1 µM
